Positions count from the first letter of the chain named.

The target of the first assay is T1, AR protein (Homo sapiens, UniProt P10275).
T1 construct: degradation activity of the compounds disclosed in the present disclosure on AR protein in VCaP cells; host or cells: VCaP
T1 sequence (P10275 1-920): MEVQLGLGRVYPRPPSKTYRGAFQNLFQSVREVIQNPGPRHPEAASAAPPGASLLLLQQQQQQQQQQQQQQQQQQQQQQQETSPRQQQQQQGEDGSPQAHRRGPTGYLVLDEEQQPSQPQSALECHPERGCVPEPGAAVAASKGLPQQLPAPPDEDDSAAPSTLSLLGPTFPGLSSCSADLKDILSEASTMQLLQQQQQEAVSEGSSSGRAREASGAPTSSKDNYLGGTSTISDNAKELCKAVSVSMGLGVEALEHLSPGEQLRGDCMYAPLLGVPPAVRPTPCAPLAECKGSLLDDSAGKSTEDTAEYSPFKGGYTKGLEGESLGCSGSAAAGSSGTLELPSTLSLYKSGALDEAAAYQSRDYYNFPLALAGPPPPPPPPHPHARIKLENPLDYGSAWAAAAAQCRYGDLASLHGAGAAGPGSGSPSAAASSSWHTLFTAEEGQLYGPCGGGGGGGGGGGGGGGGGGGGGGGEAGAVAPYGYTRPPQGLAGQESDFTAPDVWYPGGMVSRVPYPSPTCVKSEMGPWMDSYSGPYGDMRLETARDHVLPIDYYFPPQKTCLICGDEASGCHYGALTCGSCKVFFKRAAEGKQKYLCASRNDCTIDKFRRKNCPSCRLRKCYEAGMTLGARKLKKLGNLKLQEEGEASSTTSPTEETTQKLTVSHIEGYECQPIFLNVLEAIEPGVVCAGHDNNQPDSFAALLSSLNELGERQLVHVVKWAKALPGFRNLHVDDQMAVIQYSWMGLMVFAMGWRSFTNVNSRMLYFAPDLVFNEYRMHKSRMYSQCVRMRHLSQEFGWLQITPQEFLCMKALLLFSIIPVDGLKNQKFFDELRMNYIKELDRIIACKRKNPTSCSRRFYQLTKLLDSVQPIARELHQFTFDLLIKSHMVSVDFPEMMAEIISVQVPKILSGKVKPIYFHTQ
The experiment in a line: Degradation of AR protein in VCaP cells (Western blot). The note with it: compound at 10 nM, 8 hours, read-out: Degradation rate of the AR protein in VCaP cells, 10 nM (%). Type of assay: cell-based. In a few lines:
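VCaP cells treated with compound alongside solvent controls for 8 h, then lysed in RIPA and protein quantified by BCA. AR detected by SDS-PAGE/Western blot with infrared imaging. Degradation rate calculated from band grayscale, with GAPDH as internal reference.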
As to `N#Cc1ccc(O[C@H]2CC[C@H](NC(=O)c3ccc(N4CC5(CC(C(=O)N6CCC7(CC6)COc6c7ccc7c6CN(C6CCC(=O)NC6=O)C7=O)C5)C4)nn3)CC2)cc1Cl` (stereo partly drawn) [Compound 256], the inhibition at 0.01 µM was 48%.

Take `N#Cc1ccc(O[C@H]2CC[C@H](NC(=O)c3ccc(N4CCC(CO)(CN5CCC6(CC5)COc5c6ccc6c5CN(C5CCC(=O)NC5=O)C6=O)CC4)nn3)CC2)cc1Cl` (stereo partly drawn) [Compound 257]: the inhibition at 0.01 µM was found to be 67%.

With `CC1(CN2CCC3(CC2)COc2c3ccc3c2CN(C2CCC(=O)NC2=O)C3=O)CCN(c2ccc(C(=O)N[C@H]3CC[C@H](Oc4ccc(C#N)c(Cl)c4)CC3)nc2)CC1` (stereo partly drawn) [Compound 259], the inhibition at 0.01 µM turned out to be 33%.

For `N#Cc1ccc(O[C@H]2CC[C@H](NC(=O)c3ccc(N4CCC(F)(CN5CCC6(CC5)COc5c6ccc6c5CN(C5CCC(=O)NC5=O)C6=O)CC4)cn3)CC2)cc1Cl` (stereo partly drawn) [Compound 260], the inhibition at 0.01 µM amounted to 15%.

Still in this assay, the particulars now being: compound at 100 nM, 8 hours, read-out: Degradation rate of the AR protein in VCaP cells, 100 nM (%).
In the case of `N#Cc1ccc(O[C@H]2CC[C@H](NC(=O)c3ccc(N4CC5(CC(C(=O)N6CCC7(CC6)COc6c7ccc7c6CN(C6CCC(=O)NC6=O)C7=O)C5)C4)nn3)CC2)cc1Cl` (stereo partly drawn) [Compound 256], the inhibition at 0.1 µM came to 81%.

`N#Cc1ccc(O[C@H]2CC[C@H](NC(=O)c3ccc(N4CCC(CO)(CN5CCC6(CC5)COc5c6ccc6c5CN(C5CCC(=O)NC5=O)C6=O)CC4)nn3)CC2)cc1Cl` (stereo partly drawn) [Compound 257]: the inhibition at 0.1 µM is 75%.

`CC1(CN2CCC3(CC2)COc2c3ccc3c2CN(C2CCC(=O)NC2=O)C3=O)CCN(c2ccc(C(=O)N[C@H]3CC[C@H](Oc4ccc(C#N)c(Cl)c4)CC3)nc2)CC1` (stereo partly drawn) [Compound 259]: the inhibition at 0.1 µM turned out to be 78%.

With `N#Cc1ccc(O[C@H]2CC[C@H](NC(=O)c3ccc(N4CCC(F)(CN5CCC6(CC5)COc5c6ccc6c5CN(C5CCC(=O)NC5=O)C6=O)CC4)cn3)CC2)cc1Cl` (stereo partly drawn) [Compound 260], the inhibition at 0.1 µM was determined as 74%.

The test system of a further assay is VCaP cells. The experiment in a line: Inhibition of proliferation of VCaP cells (WST-8). Type of assay: cell-based. The note with it: Homo sapiens; VCaP cells, 168 hours, WST-8 absorbance at 450 nm; read-out: IC50 for inhibiting the proliferation of VCaP cells. In a few lines: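 VCaP FGC cells, 15000 per well in DMEM with 10% FBS, were cultured at 37° C, 5% CO2. On day nine, WST-8 reagent was added to read proliferation.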
(Formazan colour is commonly taken as a measure of viable cells.)
For the compound `N#Cc1ccc(O[C@H]2CC[C@H](NC(=O)c3ccc(N4CC5(CC(C(=O)N6CCC7(CC6)COc6c7ccc7c6CN(C6CCC(=O)NC6=O)C7=O)C5)C4)nn3)CC2)cc1Cl` (stereo partly drawn) [Compound 256], the IC50 was determined as 7.5 nM.

For `N#Cc1ccc(O[C@H]2CC[C@H](NC(=O)c3ccc(N4CCC(CO)(CN5CCC6(CC5)COc5c6ccc6c5CN(C5CCC(=O)NC5=O)C6=O)CC4)nn3)CC2)cc1Cl` (stereo partly drawn) [Compound 257], the IC50 came out at 1.5 nM.

Turning to `CC1(CN2CCC3(CC2)COc2c3ccc3c2CN(C2CCC(=O)NC2=O)C3=O)CCN(c2ccc(C(=O)N[C@H]3CC[C@H](Oc4ccc(C#N)c(Cl)c4)CC3)nc2)CC1` (stereo partly drawn) [Compound 259], the IC50 worked out at 1.2 nM.

Turning to `N#Cc1ccc(O[C@H]2CC[C@H](NC(=O)c3ccc(N4CCC(F)(CN5CCC6(CC5)COc5c6ccc6c5CN(C5CCC(=O)NC5=O)C6=O)CC4)cn3)CC2)cc1Cl` (stereo partly drawn) [Compound 260], the IC50 was found to be 1 nM.

A further assay concerns LNCaP FGC cells. Description: Inhibition of proliferation of LNCaP cells (WST-8). The format is cell-based. The note with it: Homo sapiens, LNCaP, 96 h, LNCaP FGC cells, 96 hours, WST-8 absorbance at 450 nm; read-out: IC50 for inhibiting the proliferation of LNCaP cells. The method, then: The cells were cultured in a cell culture incubator with 5% CO2 at 37° C. overnight. […] On the sixth day, 96 well plates were taken out, and 20 μL of WST-8 (Beytime, C0040) reagent was added to each well.
As to `N#Cc1ccc(O[C@H]2CC[C@H](NC(=O)c3ccc(N4CC5(CC(C(=O)N6CCC7(CC6)COc6c7ccc7c6CN(C6CCC(=O)NC6=O)C7=O)C5)C4)nn3)CC2)cc1Cl` (stereo partly drawn) [Compound 256], the IC50 stood at 56000 nM.

In the case of `N#Cc1ccc(O[C@H]2CC[C@H](NC(=O)c3ccc(N4CCC(CO)(CN5CCC6(CC5)COc5c6ccc6c5CN(C5CCC(=O)NC5=O)C6=O)CC4)nn3)CC2)cc1Cl` (stereo partly drawn) [Compound 257], the IC50 came out at 14 nM.

Regarding `CC1(CN2CCC3(CC2)COc2c3ccc3c2CN(C2CCC(=O)NC2=O)C3=O)CCN(c2ccc(C(=O)N[C@H]3CC[C@H](Oc4ccc(C#N)c(Cl)c4)CC3)nc2)CC1` (stereo partly drawn) [Compound 259], the IC50 stood at 73 nM.

Regarding `N#Cc1ccc(O[C@H]2CC[C@H](NC(=O)c3ccc(N4CCC(F)(CN5CCC6(CC5)COc5c6ccc6c5CN(C5CCC(=O)NC5=O)C6=O)CC4)cn3)CC2)cc1Cl` (stereo partly drawn) [Compound 260], the IC50 stood at 4 nM.

A further assay deals with T2, AR protein (Homo sapiens, UniProt P10275, T878A).
T2 construct: degradation activity of the compounds disclosed in the present disclosure on AR protein in LNCaP cells; host or cells: LNCaP FGC
T2 sequence (P10275 1-920 T878A): T1 sequence (P10275 1-920) with T878A
Description: Degradation of AR protein in LNCaP cells (Western blot). The note with it: LNCaP cells, compound 10 nM, 8 hours, Western blot grayscale, GAPDH internal reference; read-out: Degradation rates of the AR protein in LNCaP cells, 10 nM (%). The format is cell-based. In short, it runs like this:
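AR assessed by SDS-PAGE/Western blot with infrared imaging; band greyscale normalised to GAPDH gave percent degradation.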
Regarding `N#Cc1ccc(O[C@H]2CC[C@H](NC(=O)c3ccc(N4CC5(CC(C(=O)N6CCC7(CC6)COc6c7ccc7c6CN(C6CCC(=O)NC6=O)C7=O)C5)C4)nn3)CC2)cc1Cl` (stereo partly drawn) [Compound 256], the inhibition at 0.01 µM amounted to 47%.

`N#Cc1ccc(O[C@H]2CC[C@H](NC(=O)c3ccc(N4CCC(CO)(CN5CCC6(CC5)COc5c6ccc6c5CN(C5CCC(=O)NC5=O)C6=O)CC4)nn3)CC2)cc1Cl` (stereo partly drawn) [Compound 257]: the inhibition at 0.01 µM is 36%.

`CC1(CN2CCC3(CC2)COc2c3ccc3c2CN(C2CCC(=O)NC2=O)C3=O)CCN(c2ccc(C(=O)N[C@H]3CC[C@H](Oc4ccc(C#N)c(Cl)c4)CC3)nc2)CC1` (stereo partly drawn) [Compound 259]: the inhibition at 0.01 µM was -16%.

For the compound `N#Cc1ccc(O[C@H]2CC[C@H](NC(=O)c3ccc(N4CCC(F)(CN5CCC6(CC5)COc5c6ccc6c5CN(C5CCC(=O)NC5=O)C6=O)CC4)cn3)CC2)cc1Cl` (stereo partly drawn) [Compound 260], the inhibition at 0.01 µM amounted to 13%.

Still in this assay, the particulars now being: LNCaP cells, compound 100 nM, 8 hours, Western blot grayscale, GAPDH internal reference; read-out: Degradation rates of the AR protein in LNCaP cells, 100 nM (%).
On to `N#Cc1ccc(O[C@H]2CC[C@H](NC(=O)c3ccc(N4CC5(CC(C(=O)N6CCC7(CC6)COc6c7ccc7c6CN(C6CCC(=O)NC6=O)C7=O)C5)C4)nn3)CC2)cc1Cl` (stereo partly drawn) [Compound 256], for which the inhibition at 0.1 µM was 36%.

Consider `N#Cc1ccc(O[C@H]2CC[C@H](NC(=O)c3ccc(N4CCC(CO)(CN5CCC6(CC5)COc5c6ccc6c5CN(C5CCC(=O)NC5=O)C6=O)CC4)nn3)CC2)cc1Cl` (stereo partly drawn) [Compound 257], for which the inhibition at 0.1 µM is -41%.

Regarding `CC1(CN2CCC3(CC2)COc2c3ccc3c2CN(C2CCC(=O)NC2=O)C3=O)CCN(c2ccc(C(=O)N[C@H]3CC[C@H](Oc4ccc(C#N)c(Cl)c4)CC3)nc2)CC1` (stereo partly drawn) [Compound 259], the inhibition at 0.1 µM turned out to be 44%.

As for `N#Cc1ccc(O[C@H]2CC[C@H](NC(=O)c3ccc(N4CCC(F)(CN5CCC6(CC5)COc5c6ccc6c5CN(C5CCC(=O)NC5=O)C6=O)CC4)cn3)CC2)cc1Cl` (stereo partly drawn) [Compound 260], the inhibition at 0.1 µM was found to be 9%.

Source of the values: US20260234157A1, “COMPOUND AND METHOD FOR TARGETED DEGRADATION OF ANDROGEN RECEPTOR” (Gan & Lee Pharmaceuticals Co., Ltd., priority 2023, published 2026).
